Legend:
[1] = biological target: T1, 14-3-3σ/ERα (Homo sapiens, UniProt P03372+P31947); test: Fluorescence anisotropy compound titration, FAM-labeled ERα peptide; type: binding; conditions: 10 nM ERα-FAM labeled peptide, 1 µM 14-3-3σ, overnight incubation (24 h); read-out: EC50 value ERα (FA compound titration)
T1 construct: The 14-3-3 σ isoform (full-length for mass spectrometry and fluorescence anisotropy assays, ΔC for crystallography); made in house; host or cells: E. coli Rosetta 2(DE3)pLysS, pPROEX HTb vector
Text: (§1) Two orthogonal assays were developed for screening. For the primary assay, mass spectrometry (MS) was used to monitor the formation of the covalent bond between the compound and the native cysteine (Cys38 on 14-3-3σ) (Figure 1D). The assay was first performed in the absence of peptide to determine binding to 14-3-3σ only (apo screening, D1) and then in the presence of both 14-3-3σ and the peptide as an indication of how much the peptide stabilized compound binding (D2). […] As a secondary assay, fluorescence anisotropy (FA) was used. In this case, compounds were titrated to mixtures of 14-3-3σ and FAM-labeled peptides. […] Thus, the two assays are highly complementary; the MS assay reports on compound binding and the FA assay reports on peptide binding. […]
diluted in buffer (10 mM HEPES, pH 7.5, 150 mM NaCl, 0.1% Tween20, 1 mg/mL Bovine Serum Albumin (BSA; Sigma-Aldrich). Final DMSO in the assay was always 1%. Dilution series of 14-3-3 proteins or compounds were made in […]
Compound titrations were made by titrating the compound in a 2-fold dilution series (starting at 500 or 1000 µM) to a mix of fluorescein-labeled peptide (10 nM) and 14-3-3σ (concentration at approximately the EC20 to EC30 value of the protein-peptide complex; 1 µM for ERα and 5 µM for C-RAF). Using the ~EC25 value makes the assay sensitive for measuring an increase in PPI formation. Fluorescence anisotropy measurements were performed directly and after overnight incubation at room temperature. […]
Wells containing only FAM-peptide were used to set as G-factor at 35 mP. Data reported are at endpoint. EC50 and apparent Kd values were obtained from fitting the data with a four-parameter logistic model (4PL) in GraphPad Prism 7 for Windows. Data was obtained and averaged based on either three (compound titrations) or two (protein titrations) independent experiments.

[2] = biological target: T1, 14-3-3σ/ERα; test: Mass spectrometry dose response, compound binding to 14-3-3σ in the presence of ERα phosphopeptide; conditions: 100 nM compound, 100 nM 14-3-3σ, ERα-peptide 2 µM
Text: as §1
(§2) Mass spectrometry dose response assays were performed on a Waters Acquity UPLC/ Xevo G2-XS Q-Tof mass spectrometer. A Waters UPLC Protein BEH-C4 Column (300 Å, 1.7 μm, 2.1 mm x 50 mm) was used to desalt the samples prior to application on the mass spectrometer. For 19-point MS dose responses, 50 mM compound stocks in DMSO were serially diluted in 3-fold increment in a master plate, then 1000 nl of the compounds were transferred in the assay plates. Master mixes containing 100 nM full-length wild type 14-3-3σ in the absence or presence of […]
(§3) Assay buffer was TRIS (10 mM, pH 8.0) and final volume per well was 50 μl, with final top concentration of compounds dose response series at 1 mM. The reaction mixtures were incubated for 1h at rt before subjected to MS. Four measurements (1h, 8h, 16h, 24h) were performed for time-course experiments. The injection volume for each sample was 6 μl. 24 μl of sample were needed for the time-course experiments, so the total volume in the assay plate was adjusted to 50 μl, to account for the dead volume in the injections. Data collection and automated processing followed a custom workflow, as previously described.1 z Plots were created using GraphPad Prism with the log(agonist) vs. response (variable slope, four parameters) fitting model. […]

[3] = biological target: T2, 14-3-3σ (Homo sapiens, UniProt P31947); test: Mass spectrometry dose response, compound binding to 14-3-3σ in the absence of peptide (apo); conditions: 100 nM compound, 100 nM 14-3-3σ
T2 construct: The 14-3-3 σ isoform (full-length for mass spectrometry and fluorescence anisotropy assays, ΔC for crystallography); made in house; host or cells: E. coli Rosetta 2(DE3)pLysS, pPROEX HTb vector
T2 sequence (P31947 1-248): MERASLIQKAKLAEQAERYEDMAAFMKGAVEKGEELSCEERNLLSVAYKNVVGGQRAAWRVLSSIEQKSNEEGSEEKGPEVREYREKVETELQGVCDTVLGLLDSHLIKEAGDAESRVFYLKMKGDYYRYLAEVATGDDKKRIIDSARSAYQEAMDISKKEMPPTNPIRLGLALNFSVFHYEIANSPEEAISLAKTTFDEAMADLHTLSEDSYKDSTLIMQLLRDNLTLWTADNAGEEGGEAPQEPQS
Text: as §1, §2, §3

[4] = biological target: T3, 14-3-3σ/C-RAF (Homo sapiens, UniProt P31947); test: Mass spectrometry dose response, compound binding to 14-3-3σ in the presence of C-RAF phosphopeptide; conditions: 100 nM compound, 100 nM 14-3-3σ, C-RAF peptide 18 µM
T3 construct: The 14-3-3 σ isoform (full-length for mass spectrometry and fluorescence anisotropy assays, ΔC for crystallography); made in house; host or cells: E. coli Rosetta 2(DE3)pLysS, pPROEX HTb vector
T3 sequence (P31947 1-248): T2 sequence (P31947 1-248)
Text: as §1, §2, §3

| Compound | EC50 [1] [µM] | Percentage (%) bound of compound to 14-3-3σ, ERα 1h [2] [%] | Percentage (%) bound of compound to 14-3-3σ, ERα 8h [2] [%] | Percentage (%) bound of compound to 14-3-3σ, ERα 16h [2] [%] | Percentage (%) bound of compound to 14-3-3σ, ERα 24h [2] [%] | Percentage (%) bound of compound to 14-3-3σ, APO 1h [3] [%] | Percentage (%) bound of compound to 14-3-3σ, APO 8h [3] [%] | Percentage (%) bound of compound to 14-3-3σ, APO 16h [3] [%] | Percentage (%) bound of compound to 14-3-3σ, APO 24h [3] [%] | Percentage (%) bound of compound to 14-3-3σ, CRAF 1h [4] [%] | Percentage (%) bound of compound to 14-3-3σ, CRAF 8h [4] [%] | Percentage (%) bound of compound to 14-3-3σ, CRAF 24h ([4]; 24h) [%] | Percentage (%) bound of compound to 14-3-3σ, CRAF 24h ([4]; head prints 24h) [%] |
| --- | --- | --- | --- | --- | --- | --- | --- | --- | --- | --- | --- | --- | --- |
| Cl.NC1CCC(Nc2ccccc2)(C(=O)N2CCC(CNC(=O)CCl)CC2)CC1 (stereo not shown) [compound 141] | > 150 | 1.0 | 10.2 | 83.3 | 89.9 | 0 | 0 | 0.8 | 25.6 | 1.0 | 2.9 | 22.1 | 16.3 |
| O=C(CCl)NCCC1CCN(C(=O)C2(Nc3ccc(Cl)cc3)CCNCC2)CC1 [compound 151] | 16 ± 2 | 6.5 | 20.6 | 48.0 | 75.0 | 0 | 0 | 1.8 | 2.2 | 0 | 1.0 | 3.7 | 1.5 |
| Cl.NC1CCC(Oc2ccccc2)(C(=O)N2CCC(CNC(=O)CCl)CC2)CC1 (stereo not shown) [compound 139] | > 150 | 0 | 0 | 0 | 1.0 | 0 | 0 | 2.0 | 2.0 | 0 | 0 | 1.0 | 0 |
| Cl.O=C(CCl)NCC1CCN(C(=O)C2(Nc3ccccc3)CCNCC2)CC1 [compound 133] | 115 | 4.5 | 12.9 | 26.7 | 47.0 | 0.7 | 1.1 | 1.2 | 10.3 | 0 | 1.0 | 1.1 | 1.1 |
| O=C(CCl)NCCC1CCN(C(=O)C2(Nc3ccc(Cl)cc3)CCOCC2)CC1 [compound 148] | 92 ± 8 | 0 | 0 | 1.0 | 1.1 | 0 | 0 | 0 | 0 | 0 | 0 | 0 | 0 |
| O=C(CCl)NCCCC1CCN(C(=O)C2(Nc3ccc(Cl)cc3)CCNCC2)CC1 [compound 153] | 16 ± 1 | 23.1 | 44.7 | 76.1 | 88.8 | 4.7 | 7.4 | 7.8 | 8.0 | 0 | 0 | 0 | 0 |
| O=C(CCl)NCC1CCN(C(=O)C2(Nc3ccccc3)CCCCC2)CC1 [compound 121] | > 150 | 0 | 0 | 0 | 0 | 0 | 0 | 0 | 0 | 0 | 0 | 0 | 0 |

Reference: article PMC10515640, “Structure-Based Optimization of Covalent, Small-Molecule Stabilizers of the 14-3-3σ/ERα Protein–Protein Interaction from Nonselective Fragments” (Journal of the American Chemical Society, 2023)
